Test results reported in US20120053172A1 (Cooperatieve MIRzorg U.A., priority 2009, published 2012).
Where two headings read alike, the source gives them in different places.

Legend:
insulin secretion = settings: comparable dosages; cited from earlier work
obese men [1] = system: obese men
Method: The study was focused on detecting the early beneficial effects. […] Metformin was started in a dose of 850 mg twice daily, and was increased to 850 mg three times daily in the second week. All subjects received exercise training three times a week, and all were instructed to take a 30 minute walk after lunch and after dinner.
Dietary intake was reduced by about 30%, according to the calculation procedure described in example 1.
A total of 19 obese men with a BMI of 30-37.5 kg/m^2 participated in the study.

[2] = system: hyperinsulinaemic patients; settings: maximal 200 mg/day in three dosages, eight weeks; placebo 5.0 kg; cited from earlier work
obese, healthy men = assay: First study: open, uncontrolled 6 month Diazoxide insulin suppression and weight loss study
Method: Fourteen obese, healthy men were studied for 6 months in an open, uncontrolled study.
All subjects received dietary advice to reduce caloric intake to meet the calculated basal requirements for ideal body weight (based on the Harrison-Bennedict equation). They were also instructed to increase walking exercise to at least 30 minutes a day. […] Subsequently, the following data were recorded every month, for a period of 6 months: body weight, abdominal circumference, supine and upright blood pressure, the results of a two-day, 8-point HGM, and adverse effects.
DZX was increased every month until a maximum of 900 mg/day was reached or until side effects occurred.

[3] = system: obese hyperinsulinaemic men; settings: high-dose, 6 months, with moderate caloric restriction and lifestyle advice; cited from earlier work
obese men [4] = settings: cited from earlier work
obese men [5] = settings: one week, cited from earlier work
[6] = system: hyperinsulinaemic obese subjects; settings: 8-week weight-loss diet; 32 women, 3 men; cited from earlier work
[7] = system: hyperinsulinaemic, non-diabetic adolescents; settings: 850 mg twice daily for eight weeks; placebo 3.8%; cited from earlier work
adults = settings: 2380±320 mg for six months; cited from earlier work
[8] = system: overweight patients with dyslipidemia; settings: in vivo; cited from earlier work
[9] = after six months, mean dosage about 585 mg/day
[10] = oral 300 mg per day in three dosages

Structure (SMILES): CNC(=NS(=O)(=O)c1ccc(Cl)cc1)N1C[C@H](c2ccccc2)C(c2ccc(Cl)cc2)=N1 [Compound A, (4S)-3-(4-chlorophenyl)-N′-[(4-chlorophenyl)sulfonyl]-N-methyl-4-phenyl-4,5-dihydro-1-H-pyrazole-1-carboximidamide]
- inhibiting insulin secretion, compared with Diazoxide (insulin secretion): more effective than Diazoxide

Structure (SMILES): CC1=NS(=O)(=O)c2cc(Cl)ccc2N1 [Diazoxide, 7-chloro-3-methyl-4H-1,2,4-benzothiadiazine-1,1-dioxide]
- decrease in fasting serum insulin (obese men [1]; 2 months, mean±SEM, Diazoxide 100 mg twice then three times a day, Metformin 850 mg twice then three times daily): 42.4±17.7%
- serum glucose level before treatment (obese men [1]; in vivo): 5.7 ± 0.2 mmol/L
- weight loss [2]: 9.8 kg
- body weight after treatment (obese, healthy men; 6 months): 105.7 ± 3.8 kg
- other adverse effects (obese, healthy men; 6 months): not observed
- waist circumference after treatment (obese, healthy men; 6 months): 107.7±2.2 cm
- decrease of total body fat mass (obese, healthy men; 6 months, DEXA): 9.5 ± 1.9 kg
- reduction of fasting insulin levels (obese, healthy men; 6 months, mean daily dose 600±54 mg, P<0.001): 65%
- change in total body fat mass (obese, healthy men; 6 months, P<0.001): −23.3%
- increase of fasting glucose (obese, healthy men; 6 months, P<0.01): 0.8 ± 0.3 mmol/L
- body weight at baseline (obese, healthy men; baseline): 115.1 ± 3.4 kg
- waist circumference at baseline (obese, healthy men; baseline): 116.9±1.4 cm
- weight reduction [3]: relevant degree of weight reduction
- body weight after treatment (obese men [4]; [9]): about 103 kg
- plasma level of Diazoxide (obese men [4]; [9]): about 49 mg/l
- body weight at start (obese men [4]; before treatment): about 114 kg
- effect on plasma glucose and insulin levels (obese men [5]; oral 150 mg per day in three dosages): no significant effect
- effect on plasma glucose and insulin levels (obese men [5]; oral 225 mg per day in three dosages): no significant effect
- effect on fasting or postprandial glucose levels (obese men [5]; [10]): without affecting fasting or postprandial glucose levels
- reduction of plasma insulin levels (obese men [5]; [10]): about 20%
- effect on weight loss [6]: No effect

Structure (SMILES): CN(C)C(=N)N=C(N)N [Metformin]
- weight loss [7]: about 6.5%
- weight reduction (adults): 3.24%

Structure (SMILES): CCCCCCCCCCC[C@@H](C[C@@H]1OC(=O)[C@H]1CCCCCC)OC(=O)[C@H](CC(C)C)NC=O [Orlistat]
- (placebo-subtracted) net weight loss [8]: ~3 kg

Structure (SMILES): Cc1c(C(=O)NN2CCCCC2)nn(-c2ccc(Cl)cc2Cl)c1-c1ccc(Cl)cc1 [Rimonanbant, Rimonabant]
- (placebo-subtracted) net weight loss [8]: about 6 kg

Structure (SMILES): CC(C)CC(N(C)C)C1(c2ccc(Cl)cc2)CCC1 (stereo not drawn) [Sibutramine]
- (placebo-subtracted) net weight loss [8]: about 5 kg
